Patent publication US11427548B2 (Arvinas Operations, Inc., priority 2015, dated 2022)
Like-named read-outs stand apart in the source and are kept apart here.

Target: T1, Androgen Receptor (Homo sapiens, UniProt P10275)
T1 construct: endogenous in cells; host or cells: VCaP cells
T1 sequence (P10275 1-920): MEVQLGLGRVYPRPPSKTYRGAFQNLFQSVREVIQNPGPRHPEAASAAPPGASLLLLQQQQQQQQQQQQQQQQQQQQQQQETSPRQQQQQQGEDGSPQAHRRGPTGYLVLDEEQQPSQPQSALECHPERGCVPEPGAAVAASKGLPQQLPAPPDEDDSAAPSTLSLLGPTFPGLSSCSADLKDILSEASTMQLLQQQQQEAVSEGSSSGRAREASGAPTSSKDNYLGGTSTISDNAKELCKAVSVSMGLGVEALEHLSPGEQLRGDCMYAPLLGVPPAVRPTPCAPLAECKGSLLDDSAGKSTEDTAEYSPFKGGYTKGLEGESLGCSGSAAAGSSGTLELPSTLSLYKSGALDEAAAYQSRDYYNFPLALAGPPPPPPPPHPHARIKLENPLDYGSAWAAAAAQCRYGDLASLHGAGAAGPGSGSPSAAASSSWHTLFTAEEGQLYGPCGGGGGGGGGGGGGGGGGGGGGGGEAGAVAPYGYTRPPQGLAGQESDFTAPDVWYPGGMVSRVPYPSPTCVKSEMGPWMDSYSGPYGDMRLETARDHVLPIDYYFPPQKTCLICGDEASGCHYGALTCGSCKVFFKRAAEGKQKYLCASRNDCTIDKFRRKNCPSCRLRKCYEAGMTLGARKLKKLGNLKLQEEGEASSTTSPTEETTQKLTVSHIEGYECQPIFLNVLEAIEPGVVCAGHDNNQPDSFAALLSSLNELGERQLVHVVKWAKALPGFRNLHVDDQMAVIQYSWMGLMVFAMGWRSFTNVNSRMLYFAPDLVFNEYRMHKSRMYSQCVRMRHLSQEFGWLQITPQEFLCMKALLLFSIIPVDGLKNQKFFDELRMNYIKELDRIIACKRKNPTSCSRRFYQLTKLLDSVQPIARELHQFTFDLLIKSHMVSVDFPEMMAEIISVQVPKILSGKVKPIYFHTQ
Assay: Androgen Receptor ELISA assay (PathScan AR ELISA) in VCaP cells: AR degradation, Dmax and DC50
Type: cell-based
Method in brief: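 VCaP cells, 30,000/well, grown ≥3 days in phenol red-free RPMI with 5% charcoal-stripped FBS; compound added in 0.1% DMSO with 0.1 nM R1881, 7 half-log doses, 24 h. Lysate AR quantified by PathScan sandwich ELISA, HRP/TMB read at 450 nm, giving DC50 and Dmax.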

[1] = VCaP, highest percentage of Androgen Receptor degradation observed, VCaP cells (Table 32); read-out: VCaP Dmax (%)
[2] = concentration that caused 50% Androgen Receptor degradation, VCaP cells (Table 32); read-out: VCaP DC50
[3] = read-out: VCaP DC50; concentration that caused 50% Androgen Receptor degradation, VCaP cells (Table 32)
[4] = VCaP cells; Table 35; read-out: VCaP DC50
[5] = VCaP, VCaP cells; Table 35; read-out: VCaP Dmax (%)
[6] = VCaP cells; Table 36; read-out: VCaP DC50
[7] = VCaP, VCaP cells; Table 36; read-out: VCaP Dmax (%)

Row | Compound | DC50 [4] | Dmax [5] | Dmax (VCaP, read-out: VCaP Dmax (%)) | further results
1 | Cc1ncoc1-c1ccc(CNC(=O)[C@@H]2C[C@@H](O)CN2C(=O)[C@@H](NC(=O)COCCCCCNc2ccc(C(=O)N[C@H]3C(C)(C)[C@H](Oc4ccc(C#N)c(Cl)c4)C3(C)C)cc2)C(C)(C)C)cc1 [Example 173, (2S,4R)-1-[(2S)-3,3-dimethyl-2-[2-({5-[(4-{[trans-3-(3-chloro-4-cyanophenoxy)-2,2,4,4-tetramethylcyclobutyl]carbamoyl}phenyl)amino]pentyl}oxy)acetamido]butanoyl]-4-hydroxy-N-{[4-(4-methyl-1,3-oxazol-5-yl)phenyl]methyl}pyrrolidine-2-carboxamide] | – | – | – | Dmax [1]: > 71%; DC50 [2]: < 50 nM
2 | Cc1ncsc1-c1ccc([C@H](C)NC(=O)[C@@H]2C[C@@H](O)CN2C(=O)[C@@H](NC(=O)COCCCCNc2ccc(-c3ccc(N4C(=S)N(c5ccc(C#N)c(C(F)(F)F)c5)C(=O)C4(C)C)cc3)cc2)C(C)(C)C)cc1 [Example 145, (2S,4R)-1-[(2S)-2-[2-(4-{[4-(4-{3-[4-cyano-3-(trifluoromethyl)phenyl]-5,5-dimethyl-4-oxo-2-sulfanylideneimidazolidin-1-yl}phenyl)phen-yl]amino}butoxy)acetamido]-3,3-dimethylbutanoyl]-4-hydroxy-N-[(1S)-1-[4-(4-methyl-1,3-thiazol-5-yl)phenyl]ethyl]pyrrolidine-2-carboxamide] | – | – | > 71% | DC50 [3]: < 50 nM
3 | Cc1ncsc1-c1ccc([C@H](C)NC(=O)[C@@H]2C[C@@H](OC(=O)C(C)C)CN2C(=O)[C@@H](NC(=O)COCCCCCNc2ccc(C(=O)N[C@H]3C(C)(C)[C@H](Oc4ccc(C#N)c(Cl)c4)C3(C)C)cc2)C(C)(C)C)cc1 [Example 468] | < 50 nM | > 71% | – | –
4 | Cc1ncsc1-c1ccc([C@H](C)NC(=O)[C@@H]2C[C@@H](O)CN2C(=O)[C@@H](C(C)C)n2cc(Oc3cccc(OCCCCCOc4ccc(N5C(=S)N(c6ccc(C#N)c(C(F)(F)F)c6)C(=O)C5(C)C)cc4)c3)cn2)nc1 [Example 424] | – | – | < 25% | DC50 (read-out: VCaP DC50; VCaP cells; Table 35): > 501 nM
5 | CC(=O)O[C@@H]1C[C@@H](C(=O)N[C@@H](C)c2ccc(-c3scnc3C)cc2)N(C(=O)[C@H](C(C)C)N2Cc3ccc(OCCN4CCN(c5ccc(C(=O)N[C@H]6C(C)(C)[C@H](Oc7ccc(C#N)c(Cl)c7)C6(C)C)cn5)CC4)cc3C2=O)C1 [Example 857, (3R,5S)-1-((S)-2-(6-(2-(4-(5-(((1r,3r)-3-(3-chloro-4-cyanophenoxy)-2,2,4,4-tetramethylcyclobutyl)carbamoyl)pyridin-2-yl)piperazin-1-yl)ethoxy)-1-oxoisoindolin-2-yl)-3-methylbutanoyl)-5-(((S)-1-(4-(4-methylthiazol-5-yl)phenyl)ethyl)carbamoyl)pyrrolidin-3-yl acetate] | – | – | < 25% | DC50 [6]: > 501 nM
6 | Cc1ncsc1-c1ccc([C@H](C)NC(=O)[C@@H]2C[C@@H](O)CN2C(=O)[C@@H](NC(=O)OC(C)(C)C)[C@@H](C)OCCCN(C)CCc2ccc(C(=O)N[C@H]3C(C)(C)[C@H](Oc4ccc(C#N)c(Cl)c4)C3(C)C)cc2)cc1 [Example 729, tert-butyl ((2S,3R)-3-(3-((4-(((1r,3r)-3-(3-chloro-4-cyanophenoxy)-2,2,4,4-tetramethylcyclobutyl)carbamoyl)phenethyl)(meth-yl)amino)propoxy)-1-((2S,4R)-4-hydroxy-2-(((S)-1-(4-(4-methylthiazol-5-yl)phenyl)ethyl)carbam-oyl)pyrrolidin-1-yl)-1-oxobutan-2-yl)carbamate] | – | – | – | DC50 [6]: > 501 nM; Dmax [7]: < 25%
7 | Cc1ncoc1-c1ccc(CNC(=O)[C@@H]2C[C@@H](O)CN2C(=O)[C@@H](NC(=O)COCCOc2ccc(-c3ccc(C(=O)N[C@H]4C(C)(C)[C@H](Oc5ccc(C#N)c(Cl)c5)C4(C)C)cc3)cc2)C(C)(C)C)cc1 [Example 181] | – | – | – | Dmax [1]: > 71%; DC50 [2]: < 50 nM
8 | COC(=O)[C@@H]1C[C@@H](O)CN1C(=O)[C@@H](NC(=O)COCCCCCOc1ccc(C(=O)N[C@H]2C(C)(C)[C@H](Oc3ccc(C#N)c(Cl)c3)C2(C)C)cc1)C(C)(C)C [Example 519] | < 50 nM | 26 to 50% | – | –
9 | Cc1ncsc1-c1ccc(CNC(=O)[C@@H]2C[C@@H](O)CN2C(=O)[C@@H](NC(=O)COC(C)CCCOc2ccc(-c3ccc(N4C(=S)N(c5ccc(C#N)c(C(F)(F)F)c5)C(=O)C4(C)C)cc3)cc2)C(C)(C)C)cc1 (stereo in doubt) [Example 147, (2S,4R)-1-[(2S)-2-(2-{[(2S)-5-[4-(4-{3-[4-cyano-3-(trifluoromethyl)phenyl]-5,5-dimethyl-4-oxo-2-sulfanylideneimidazolidin-1-yl}phenyl)phenoxy]pentan-2-yl]oxy}acetamido)-3,3-dimethylbutanoyl]-4-hydroxy-N-{[4-(4-methyl-1,3-thiazol-5-yl)phenyl]methyl}pyrrolidine-2-carboxamide] | – | – | > 71% | DC50 [3]: < 50 nM
10 | Cc1ncoc1-c1ccc(CNC(=O)[C@@H]2C[C@@H](O)CN2C(=O)[C@@H](NC(=O)COCCCCOc2ccc(-c3ccc(N4C(=S)N(c5ccc(C#N)c(C(F)(F)F)c5)C(=O)C4(C)C)cc3F)cc2)C(C)(C)C)cc1 [Example 399] | – | – | > 71% | DC50 (read-out: VCaP DC50; VCaP cells; Table 34): < 50 nM
11 | Cc1nc(O[C@H]2C(C)(C)[C@H](NC(=O)c3ccc(N4CCN(CCCN5CCN(CC(=O)O[C@H](C(=O)N6C[C@H](O)C[C@H]6C(=O)N[C@@H](C)c6ccc(-c7scnc7C)cc6)C(C)(C)C)CC5)CC4)nc3)C2(C)C)ccc1C#N [Example 716, N-((1r,3r)-3-((5-cyano-6-methylpyridin-2-yl)oxy)-2,2,4,4-tetramethylcyclobutyl)-6-(4-(3-(4-(2-(((S)-1-((2S,4R)-4-hydroxy-2-(((S)-1-(4-(4-methylthiazol-5-yl)phenyl)ethyl)carbam-oyl)pyrrolidin-1-yl)-3,3-dimethyl-1-oxobutan-2-yl)amino)-2-oxoethyl)piperazin-1-yl)propyl)piperazin-1-yl)nicotinamdie] | – | – | – | DC50 [6]: > 501 nM; Dmax [7]: 26 to 50%
12 | COc1cc(-c2ccc(N3C(=S)N(c4ccc(C#N)c(C(F)(F)F)c4)C(=O)C3(C)C)cc2)ccc1OCCCCOCC(=O)N[C@H](C(=O)N1C[C@H](O)C[C@H]1C(=O)NCc1ccc(-c2scnc2C)cc1)C(C)(C)C [Example 139, (2S,4R)-1-[(2S)-2-(2-{4-[4-(4-{3-[4-cyano-3-(trifluoromethyl)phenyl]-5,5-dimethyl-4-oxo-2-sulfanylideneimidazolidin-1-yl}phenyl)-2-methoxyphenoxy]butoxy}acetamido)-3,3-dimethylbutanoyl]-4-hydroxy-N-{[4-(4-methyl-1,3-thiazol-5-yl)phenyl]methyl}pyrrolidine-2-carboxamide] | – | – | > 71% | DC50 [3]: < 50 nM

Now from value to compound, other results behind:

Row | DC50 [4] | Dmax [5] | Compound | Dmax (VCaP, read-out: VCaP Dmax (%)) | further results
13 | < 50 nM | > 71% | Cc1nccn1-c1ccc([C@H](C)NC(=O)[C@@H]2C[C@@H](O)CN2C(=O)[C@@H](NC(=O)COCCNc2ccc(-c3ccc(C(=O)N[C@H]4C(C)(C)[C@H](Oc5ccc(C#N)c(Cl)c5)C4(C)C)cc3)cn2)C(C)(C)C)cc1 [Example 425] | – | –
14 | < 50 nM | > 71% | Cc1ncsc1-c1ccc(CNC(=O)[C@@H]2C[C@@H](O)CN2C(=O)[C@@H](NC(=O)COCCN2CCN(c3ccc(C(=O)N[C@H]4C(C)(C)[C@H](Oc5ccc(C#N)c(Cl)c5)C4(C)C)cc3)CC2)C(C)(C)C)cc1 [Example 544] | – | –
15 | > 501 nM | 51 to 70% | Cc1ncsc1-c1ccc([C@H](C)NC(=O)[C@@H]2C[C@@H](O)CN2C(=O)C(NC(=O)COCCCCCNc2ccc(C(=O)N[C@H]3C(C)(C)[C@@H](Oc4ccc(C#N)c(Cl)c4)C3(C)C)cc2)C(C)(C)C)cc1 (some centres unmarked) [Example 455] | – | –
16 | > 501 nM | 26 to 50% | Cc1ncsc1-c1ccc([C@@H](CN(C)C)NC(=O)[C@@H]2C[C@@H](O)CN2C(=O)[C@@H](NC(=O)COCCCCCOc2ccc(C(=O)N[C@H]3C(C)(C)[C@H](Oc4ccc(C#N)c(Cl)c4)C3(C)C)cc2)C(C)(C)C)cc1 [Example 471] | – | –
